Entries after “also recorded” stand apart in the source; their conditions may differ. Read-outs that look alike come from different tables or passages of the source.
Tests used:
SARS-CoV-2 [1] = assay: microbe, parasite or virus in culture; details: Severe acute respiratory syndrome coronavirus 2, Vero C1008, 24 h
SARS-CoV-2 [2] = details: Vero E6 cells; for inhibition of SARS-CoV-2 in compound dilution series: 4 µM to 0.062 µM, 24 h post-infection
SARS-CoV-2 [3] = assay: Survival screen: SARS-CoV-2-induced CPE, crystal violet staining; format: cell-based; details: Vero E6 cells, 1 µM, 2 h pretreatment, MOI 0.01, 48 h
Protocol: Vero E6 cells were seeded in 96-well clear bottom, black wall plates (Costar, Tewksbury, MA, USA), at a density of 20,000 cells per well, one day prior to the experiment. Cells were pretreated for 2 h with 1 µM of each compound contained in the PRB. Remdesivir, K22 [17], and vehicle controls (DMSO) were included in each plate. Subsequently, cells were infected with SARS-CoV-2 at a multiplicity of infection (MOI) of 0.01 in compound-containing medium and incubated at 37 °C in a humidified incubator with 5% CO2. Uninfected (mock) controls were included in each plate. At 48 h post-infection (hpi), cells were fixed with 4% (v/v) neutral buffered formalin (Formafix AG, Hittnau, Switzerland) and stained with crystal violet. Cell viability and cytotoxicity were assessed in parallel, in identically treated, uninfected plates. […]
To identify potential antiviral compounds against SARS-CoV-2 replication, 201 antibacterial, 46 antifungal and 153 antiviral molecules included in the PRB were screened using a conservative concentration of 1 µM. […] Cell survival was scored from 0 (virus-induced cytopathogenic effects; CPE) to 1 (no CPE), upon evaluation of SARS-CoV-2-induced CPE using crystal violet staining (Figure 1A). The cytotoxicity and cell viability were assessed on uninfected plates processed in parallel, to exclude detrimental effects of the compounds on the cells. […]

[4] = CC50 determination on Calu-3 cells (cell viability); details: human
[5] = CellTiter-Glo 2.0 cell viability assay on Vero E6 cells; details: African green monkey, Vero E6 cells (uninfected)
[6] = CellTox green cytotoxicity assay on Vero E6 cells; details: African green monkey, Vero E6 cells (uninfected)
in vitro [7] = details: African green monkey
SARS-CoV-2 [8] = assay: microbe, parasite or virus in culture; format: cell-based; details: Severe acute respiratory syndrome coronavirus 2; Calu-3 cells, percentage of virus-infected cells, 2 h pretreatment, fixed 48 h post-infection
SARS-CoV-2 [9] = assay: in vitro
Vero E6 cells [10] = assay: CellTiter-Glo 2.0 cell viability assay on Vero E6 cells; details: Vero E6 cells, uninfected plates, 48 h
Vero E6 cells [11] = assay: CellTox green cytotoxicity assay on Vero E6 cells; details: Vero E6 cells, uninfected plates, 48 h
in vitro [12] = details: African green monkey; remark: listed apart in the source
SARS-CoV-2 [13] = assay: Time-of-addition experiment in Vero E6 cells; format: cell-based; details: 10 μM
SARS-CoV-2 [14] = format: cell-based; details: Vero E6 supernatants, dose-dependent, TCID50
[15] = Selective Index (SI), CC50 divided by EC50, Vero E6 cells

SMILES	EC90 (SARS-CoV-2 [1]) [µM]	inhibition of SARS-CoV-2 in compound dilution series (SARS-CoV-2 [2])	CC50 at 48 h [4] [µM]	CC50 at 48 h [5] [µM]	CC50 at 48 h [6] [µM]	also measured
CCN(CC)CCCC(C)Nc1ccnc2cc(Cl)ccc12 (centres unmarked) [Chloroquine]	10.4	inhibited SARS-CoV-2 in a dose-dependent manner	–	–	–	–
O=C(N/C(=C\c1ccccc1)C(=O)N1CCC(O)(c2ccc(Br)cc2)CC1)c1ccccc1 [K22]	–	–	–	–	–	inhibition of SARS-CoV-2-induced CPE in the survival screen (SARS-CoV-2 [3]): did not show any inhibitory activity; also recorded: did not inhibit SARS-CoV-2 infection
CCCCCCCCCN1C[C@H](O)[C@@H](O)[C@H](O)[C@H]1CO [NN-DNJ, N-Nonyl Deoxynojirimycin]	–	inhibited SARS-CoV-2 in a dose-dependent manner	> 100	> 100	> 100	–
Cc1ccc(C)c(OCCCCCCN2C[C@H](O)[C@@H](O)[C@H](O)[C@H]2CO)c1 [PBDNJ0803]	–	inhibited SARS-CoV-2 in a dose-dependent manner	> 100	> 100	> 100	–
CCC(CC)COC(=O)[C@H](C)N[P@](=O)(OC[C@H]1O[C@@](C#N)(c2ccc3c(N)ncnn23)[C@H](O)[C@@H]1O)Oc1ccccc1 [Remdesivir]	3.39	–	–	–	–	CC50 (in vitro [7]): > 100 µM; EC50 (SARS-CoV-2 [8]): 0.17 µM; selectivity ratio (SARS-CoV-2 [9]; [15]): > 73.8; influence on cell viability in the screen (Vero E6 cells [10]): did not influence; influence on cell cytotoxicity in the screen (Vero E6 cells [11]): did not influence cell cytotoxicity; Selective Index (SI), CC50 divided by EC50 (SARS-CoV-2 [2]): > 73.85; CC50 (in vitro [12]): > 100 µM
Cc1nc(-c2ccc([C@@H]3N(C)c4ccc(F)cc4C(=O)N3c3ccccc3)s2)cs1 [Retro-2.1]	1.03	inhibited SARS-CoV-2 in a dose-dependent manner	> 100	> 100	> 100	EC50 (SARS-CoV-2 [8]): 0.08 µM; selectivity ratio (SARS-CoV-2 [9]): > 239; inhibitory effect on SARS-CoV-2-infected cells, treatment after infection (condition 3) (SARS-CoV-2 [13]; MOI 0.01, 24 h post-infection): most pronounced inhibitory effect; inhibitory effect on SARS-CoV-2-infected cells, treatment during infection (condition 2) (SARS-CoV-2 [13]; MOI 0.01, 24 h post-infection): more pronounced inhibition; inhibitory effect on SARS-CoV-2-infected cells, treatment prior to infection (condition 1) (SARS-CoV-2 [13]; MOI 0.01, 24 h post-infection): only a marginal reduction; reduction in viral titer, treatment after infection (condition 3) (SARS-CoV-2 [13]; supernatant at 24 h post-infection): > 1000 fold; reduction in viral titer (SARS-CoV-2 [14]): strongest reduction
CN1CCN(Cc2ccc(-c3cnc4[nH]cc(-c5ccc6[nH]ccc6c5)c4c3)cc2)CC1 [URMC-099-C]	1.83	inhibited SARS-CoV-2 in a dose-dependent manner	15.5	14.7	24.9	selectivity ratio (SARS-CoV-2 [9]; [15]): 50.7; Selective Index (SI), CC50 divided by EC50 (SARS-CoV-2 [2]): 50.69
